Several values for one entry are separate records, joined by “and”; a condition that tells them apart may be missing. Equal entries are not always repeated.
Key:
[1] = system: Rat; type: in vivo; details: IT nornicotine perchlorate 10 ug/10 ul, Day 1
Description: • Experiment: Tail-Flick—Al at 40%; cut-off 10 sec. • Measurements will be taken at baseline (2×), 5, 10, 15, 30, 45, 60, 90, 120 minutes after drug administration. • Drug Treatment: • […] will be administered in a 10 ul vol., followed by a 10 ul saline flush. • Both R- & S-nornicotine will be tested. • Preparation of Solution: • 10 ug in 10 ul vol. • 100 ug in 100 ul vol. • […]. • 1 mg in 1 ml=10 mg/10 ml vol. • Drug Administration Schedule: […]

[2] = system: Rat; assay: Tail-Flick test after intrathecal (IT) injection, AI 40%, cut-off 10 sec; type: in vivo; details: IT nornicotine perchlorate 10 ug/10 ul alone, Day 1, one rat per line, cutoff 10 sec; for Tail-Flick 5 min.: 5 min after injection; for Tail-Flick 10 min.: 10 min after injection; for Tail-Flick 15 min.: 15 min after injection; for Tail-Flick 30 min.: 30 min after injection; for Tail-Flick 45 min.: 45 min after injection; for Tail-Flick 60 min.: 60 min after injection
Description: • Experiment: Tail-Flick—Al at 40%; cut-off 10 sec. • Measurements will be taken at baseline (2×), 5, 10, 15, 30, 45, 60, 90, 120 minutes after drug administration. • Drug Treatment: • […] will be administered in a 10 ul vol., followed by a 10 ul saline flush. • Both R- & S-nornicotine will be tested. • Preparation of Solution: • 10 ug in 10 ul vol. • 100 ug in 100 ul vol. • […]. • 1 mg in 1 ml=10 mg/10 ml vol. • Drug Administration Schedule:
IT—Narnicotine Perchlorate—Day 1 Tail-Flick—IITC Life Science Model 33 Series 8 • Al=40% Cutoff=10 sec. […]

[3] = following peripheral administration of nicotine; cited from earlier work
[4] = following repeated nicotine dosing; cited from earlier work

SMILES	Behavior: side effects [1]	Tail-Flick 5 min. [2]	Tail-Flick 10 min. [2]	Tail-Flick 15 min. [2]	Tail-Flick 30 min. [2]	Tail-Flick 45 min. [2]	Tail-Flick 60 min. [2]	residence in the rat's brain [3]	residence in the rat's brain, times longer than nicotine [3]	accumulation in the brain compared to nicotine [4]
c1cncc([C@H]2CCCN2)c1 [R, R-nornicotine]	no noticeable side effects	3.04 s and 5.00 s and 5.47 s and 2.16 s and 6.67 s	2.23 s and 4.08 s and 2.53 s and 1.80 s and 5.95 s	3.16 sec and 4.34 sec and 2.82 sec (2×) and 2.86 sec	2.55 s and 3.13 s and 3.90 s and 2.73 s and 4.14 s	3.13 s and 2.87 s and 4.26 s and 2.40 s and 4.95 s	2.19 s and 2.75 s and 3.12 s and 2.63 s and 3.93 s	–	–	–
c1cncc([C@@H]2CCCN2)c1 [S, S-nornicotine]	no obvious side effects	9.06 s and 8.01 s and 4.40 s and 8.17 s and 3.84 s	6.39 s and 5.47 s and 5.60 s and 6.21 s and 3.21 s	4.58 s and 4.33 s and 6.08 s and 3.29 s and 3.56 s	6.14 s and 3.31 s and 4.85 s and 3.47 s and 4.05 s	3.95 s and 3.57 s and 2.23 s and 4.60 s and 4.07 s	4.11 sec and 3.35 sec (2×) and 4.27 sec and 4.26 sec	–	–	–
CN1CCCC1c1cccnc1 (stereo not drawn) [nicotine]	–	–	–	–	–	–	–	52 min	–	–
c1cncc([C@@H]2CCCN2)c1 [nornicotine]	–	–	–	–	–	–	–	166 min	about 3 times	about 4 fold

Reference: patent US8710069B2, “Opioid-nornicotine codrugs combinations for pain management” (University of Kentucky Research Foundation, priority 2008, dated 2014)
